According to patent publication US20250051327A1, “MALT-1 MODULATORS” (EXSCIENTIA AI LIMITED, priority 2020, published 2025):

Key:
[1] = target: Recombinant human MALT-1 (amino acids 340-824) (Homo sapiens (Human), UniProt Q9UDY8); experiment: MALT-1 inhibition assay (fluorogenic substrate Ac-LRSR-Rh110-DP); format: biochemical; settings: recombinant human MALT-1, substrate Ac-LRSR-Rh110-DP
Procedure: MALT-1 paracaspase activity was measured using the fluorogenic substrate Ac-LRSR-Rh110-DP (purchased from Biosantan GmbH). […] The reaction was initiated by addition of substrate. Final concentrations of MALT-1 and substrate were 3 nM and 10 μM respectively. Reactions were incubated in the dark for 60 minutes at 25° C. […] Percent inhibition values were calculated from relative fluorescence units at different doses and fitted to a 4-parameter logistic curve to determine IC50 values (see Table 1).

[2] = system: IL-2 secretion by human effector memory T cells (TEM); experiment: Effector memory T cells IL-2 release assay; format: cell-based; settings: T-cell; human CD4+ effector memory T cells, CD3/CD28 bead stimulation, 24 h; read-out: CD4TC IL2 IC50
Procedure: Effector Memory T Cells IL-2 Release Assay
Test compound-mediated inhibition of NFκB signalling in T cells was assessed by quantification of the IL-2 secretion by human effector memory T cells (TEM) upon treatment and stimulation. Human TEM cells were isolated from buffy coats of healthy donors obtained from the French blood bank. First, peripheral blood mononuclear cells (PBMC) were purified from buffy coats diluted 1:1 with DPBS (Gibco, cat #14190-094) by Pancoll (PAN BIOTECH, cat #P04-60500) density gradient centrifugation at 400×g for 20 minutes. TEM cells were further enriched by negative immuno-magnetic cell sorting using a human CD4+ Effector Memory T Cell Isolation Kit (Miltenyi, cat #130-094-125) according to the manufacturer's instructions. Aliquots of 3×10E6 purified TEM cells were kept frozen in Cryo-SFM medium (PromoCell, cat #C-29912) in gas phase nitrogen until used. Cell purity was verified by flow cytometry analysis of 200 000 PFA-fixed cells previously labelled with monoclonal antibodies anti-CD4-PerCP-Cy5.5 (BD Pharmigen, cat #332772), anti-CD8-V500 (BD Biosciences, cat #561617), anti-CD14-Pacific Blue (Biolegend, cat #325616), anti-CD45 RA-FITC (Biolegend, cat #304106) and anti-CCR7-APC (in CD4+ Effector Memory T Cell Isolation Kit, Miltenyi, cat #130-094-125).
TEM cells were resuspended in complete RPMI medium composed of: RPMI 1640 (Gibco, cat #31870-025), 10% heat inactivated fetal bovine serum (Sigma, cat #F7524), 2 mM GlutaMAX (Gibco, cat #35050-038), 1 mM sodium pyruvate 100× (Gibco, cat #11360-039), 1% MEM non-essential amino acids solution (Gibco, cat #11140-035) and 100 U/mL penicillin, 100 μg/mL streptomycin (Sigma-Aldrich, cat #11074440001). 5,000 cells per well were plated onto flat clear bottom 384 well plates (Corning, cat #3770). 5,000 Dynabeads Human T-Activator CD3/CD28 (Gibco, cat #11132D) were added to each well for cell stimulation. Finally, 10 doses of test compound, originally prepared in DMSO by serial semi-log step dilution, were also added to cells in triplicate wells. Final DMSO concentration in wells was 0.1% in a total volume of 100 μL complete medium. Plates were incubated for 24 h at 37° C. in 5% CO2 atmosphere. After incubation, cell suspensions were centrifuged at 400×g and culture supernatants were recovered and stored at −80° C. Cell viability was assessed by flow cytometry after staining the cells with Fixable Viability Dye eFluor 780 (Invitrogen, cat #65-0865-14). IL-2 levels were determined in cell supernatants using an HTRF human IL-2 detection kit (Cisbio, cat #62HIL02PEH). IL-2 data at the different compound doses were fitted to a 4-parameter logistic curve to determine IC50 values, corresponding to the compound concentration leading to 50% reduction of the maximal IL-2 levels observed in each experiment. Viability data were analysed similarly to exclude cytotoxicity as a cause of IL-2 decrease (see Table 1).

Chain of Recombinant human MALT-1 (amino acids 340-824) (Q9UDY8 340-824): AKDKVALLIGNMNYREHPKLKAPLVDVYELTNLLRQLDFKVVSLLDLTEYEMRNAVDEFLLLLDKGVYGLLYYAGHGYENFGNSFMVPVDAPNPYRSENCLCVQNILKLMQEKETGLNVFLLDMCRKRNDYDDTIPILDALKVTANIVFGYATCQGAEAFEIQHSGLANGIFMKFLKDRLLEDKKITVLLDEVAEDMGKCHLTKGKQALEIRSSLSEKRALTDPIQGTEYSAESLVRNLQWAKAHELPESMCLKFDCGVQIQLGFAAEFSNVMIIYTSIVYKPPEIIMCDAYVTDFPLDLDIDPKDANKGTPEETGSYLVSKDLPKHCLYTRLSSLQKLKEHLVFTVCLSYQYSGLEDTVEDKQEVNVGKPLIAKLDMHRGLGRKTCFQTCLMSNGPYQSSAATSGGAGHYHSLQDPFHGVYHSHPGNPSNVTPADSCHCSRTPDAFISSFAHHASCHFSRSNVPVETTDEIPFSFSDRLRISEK

Row | Structure (SMILES) | IC50 [1] [nM] | IC50 [2] [nM]
1 | C[C@H]1CCN(c2ccc([C@H](N(C)C(=O)[C@H]3CC[S@](=N)(=O)CC3)C(F)(F)F)cc2)c2cnc3cc(Cl)nn3c21 (relative stereo) [CPD0073195, (1rel-R,4rel-R)-N-[(1S)-1-{4-[(13rel-S)-4-chloro-13-methyl-2,3,7,10-tetraazatricyclo[7.4.0.0^2,6]trideca-1(9),3,5,7-tetraen-10-yl]phenyl}-2,2,2-trifluoroethyl]-1-imino-N-methyl-1-oxo-1λ^6-thiane-4-carboxamide] | 22 | 51
2 | CC1CCN(c2ccc([C@H](N(C)C(=O)[C@H]3CC[S@](=N)(=O)CC3)C(F)(F)F)cc2)c2cnc3cc(Cl)nn3c21 (some centres unmarked) [CPD0072813] | 27 | 61
3 | CC(C)C(=O)N(C)[C@@H](c1ccc(N2CCCc3c2cnc2cc(Cl)nn32)cc1)C(F)(F)F [CPD0019340, N-[(1S)-1-(4-{4-chloro-2,3,7,10-tetraazatricyclo[7.4.0.0^2,6]trideca-1(9),3,5,7-tetraen-10-yl}phenyl)-2,2,2-trifluoroethyl]-N,2-dimethylpropanamide] | 130 | 139
4 | CN(C(=O)[C@H]1CC[S@@](=N)(=O)CC1)[C@@H](c1ccc(N2CCC3(CC3)c3c2cnc2cc(F)nn32)cc1)C(F)(F)F (relative stereo) [CPD0072852, (1rel-s,4rel-s)-1-imino-N-methyl-1-oxo-N-[(1S)-2,2,2-trifluoro-1-(4-{4′-fluoro-2′,3′,7′,10′-tetraazaspiro[cyclopropane-1,13′-tricyclo[7.4.0.0^2,6]tridecane]-1′(9′),3′,5′,7′-tetraen-10′-yl}phenyl)ethyl]-1λ^6-thiane-4-carboxamide] | 28 | 65
5 | Cc1ncc(C(=O)N(C)[C@@H](c2ccc(N3CCCc4c3cnc3cc(Cl)nn43)cc2)C(F)(F)F)n1C [CPD0019346, N-[(1S)-1-(4-{4-chloro-2,3,7,10-tetraazatricyclo[7.4.0.0^2,6]trideca-1(9),3,5,7-tetraen-10-yl}phenyl)-2,2,2-trifluoroethyl]-N,1,2-trimethyl-1H-imidazole-5-carboxamide] | 535 | 720
6 | COC[C@@]1(C)CCN(c2ccc([C@H](N(C)C(=O)[C@H]3CC[S@@+]([O-])CC3)C(F)(F)F)cc2)c2cnc3cc(Cl)nn3c21 (relative stereo) [CPD0073137, (1rel-s,4rel-s)-N-[(1S)-1-[4-[(13rel-S)-4-chloro-13-(methoxymethyl)-13-methyl-2,3,7,10-tetrazatricyclo[7.4.0.0^2,6]trideca-1(9),3,5,7-tetraen-10-yl]phenyl]-2,2,2-trifluoro-ethyl]-N-methyl-1-oxo-1λ^4-thiane-4-carboxamide] | 90 | 45
7 | CC1CCN(c2ccc([C@H](N(C)C(=O)C3CCS(=O)(=O)CC3)C(F)(F)F)cc2)c2cnc3cc(Cl)nn3c21 (single isomer, unassigned) [CPD0021811] | 68 | 82
8 | Cc1ncsc1C(=O)N(C)[C@@H](c1ccc(N2CCCc3c2cnc2cc(Cl)nn32)cc1)C(F)(F)F [CPD0019351, N-[(1S)-1-(4-{4-chloro-2,3,7,10-tetraazatricyclo[7.4.0.0^2,6]trideca-1(9),3,5,7-tetraen-10-yl}phenyl)-2,2,2-trifluoroethyl]-N,4-dimethyl-1,3-thiazole-5-carboxamide] | 278 | 152
9 | COC[C@@]1(C)CCN(c2ccc([C@H](N(C)C(=O)C3CCS(=O)(=O)CC3)C(F)(F)F)cc2)c2cnc3cc(Cl)nn3c21 [CPD0073139, N-[(1S)-1-[4-[(13rel-S)-4-chloro-13-(methoxymethyl)-13-methyl-2,3,7,10-tetrazatricyclo[7.4.0.0^2,6]trideca-1(9),3,5,7-tetraen-10-yl]phenyl]-2,2,2-trifluoro-ethyl]-N-methyl-1,1-dioxo-1λ^6-thiane-4-carboxamide] | – | 65
10 | CN(C(=O)[C@H]1C[C@@H]([S@@+](C)(=N)[O-])C1)[C@@H](c1ccc(N2CCCc3c2cnc2cc(Cl)nn32)cc1)C(F)(F)F [CPD0073223, (1R,3s)-N-[(1S)-1-(4-{4-chloro-2,3,7,10-tetraazatricyclo[7.4.0.0^2,6]trideca-1(9),3,5,7-tetraen-10-yl}phenyl)-2,2,2-trifluoroethyl]-3-[(S)-imino(methyl)oxo-λ^6-sulfanyl]-N-methylcyclobutane-1-carboxamide] | – | 172
11 | COc1ccc2ncc(Nc3ccc([C@H](N(C)C(=O)[C@@H]4CNC(=O)C4)C(F)(F)F)cc3)c([C@H](C)OC)c2n1 (relative stereo) [CPD0074550, (3 rel S)-N-methyl-5-oxo-N-[(1S)-2,2,2-trifluoro-1-[4-[6-methoxy-4-[(1 rel S)-1-methoxyethyl]-1,5-naphthyridin-3-yl]amino]phenyl]ethyl]pyrrolidine-3-carboxamide] | – | 41
12 | CN(C(=O)[C@@H]1CCN(C(=O)CC#N)C1)[C@@H](c1ccc(N2CCCc3c2cnc2cc(Cl)nn32)cc1)C(F)(F)F [CPD0073190, (3rel-R)-N-[(1S)-1-[4-(4-chloro-2,3,7,10-tetrazatricyclo[7.4.0.0^2,6]trideca-1(9),3,5,7-tetraen-10-yl)phenyl]-2,2,2-trifluoro-ethyl]-1-(2-cyanoacetyl)-N-methyl-pyrrolidine-3-carboxamide] | – | 239
13 | COc1ccc2ncc(Nc3ccc([C@H](N(C)C(=O)[C@H]4CC[S@@+]([O-])CC4)C(F)(F)F)cc3)c([C@H](C)OC)c2n1 (relative stereo) [CPD0072935, (1rel-s,4rel-s)-N-methyl-1-oxo-N-[(1S)-2,2,2-trifluoro-1-[4-({6-methoxy-4-[(1 rel-S)-1-methoxyethyl]-1,5-naphthyridin-3-yl}amino)phenyl]ethyl]-1λ^4-thiane-4-carboxamide] | – | 34
14 | COc1ccc2ncc(Nc3ccc([C@H](N(C)C(=O)C4CCN(C(C)=O)CC4)C(F)(F)F)cc3)c([C@H](C)OC)c2n1 (relative stereo) [CPD0074559, 1-acetyl-N-methyl-N-[(1S)-2,2,2-trifluoro-1-[4-[6-methoxy-4-[(1 rel S)-1-methoxyethyl]-1,5-naphthyridin-3-yl]amino]phenyl]ethyl]piperidine-4-carboxamide] | – | 27
15 | CN(C(=O)[C@H]1CS(=O)(=O)CC12COC2)[C@@H](c1ccc(N2CCCc3c2cnc2cc(Cl)nn32)cc1)C(F)(F)F [CPD0073975, (8rel-S)-N-[(1S)-1-(4-{4-chloro-2,3,7,10-tetraazatricyclo[7.4.0.0^2,6]trideca-1(9),3,5,7-tetraen-10-yl}phenyl)-2,2,2-trifluoroethyl]-N-methyl-6,6-dioxo-2-oxa-6λ^6-thiaspiro[3.4]octane-8-carboxamide] | – | 341
16 | COc1ccc2ncc(Nc3ccc([C@H](N(C)C(=O)C4CCS(=O)(=O)CC4)C(F)(F)F)cc3)c([C@H]3CCOC3)c2n1 [CPD0074039] | – | 34
17 | COc1ccc2ccc(Nc3ccc([C@H](N(C)C(=O)C4CCS(=O)(=O)CC4)C(F)(F)F)cc3)cc2n1 [CPD0019078, N-methyl-1,1-dioxo-N-[(1S)-2,2,2-trifluoro-1-{4-[(2-methoxyquinolin-7-yl)amino]phenyl}ethyl]-16-thiane-4-carboxamide] | – | 108
18 | COc1ccc2ncc(Nc3ccc([C@H](N(C)C(=O)[C@H]4CC[S@+]([O-])CC4)C(F)(F)F)cc3)c([C@H](C)OC)c2n1 (relative stereo) [CPD0072936, (1rel-r,4rel-r)-N-methyl-1-oxo-N-[(1S)-2,2,2-trifluoro-1-[4-({6-methoxy-4-[(1 rel-S)-1-methoxyethyl]-1,5-naphthyridin-3-yl}amino)phenyl]ethyl]-1λ^4-thiane-4-carboxamide] | – | 17
